In US8329755B2, “Methods for treating retroviral infections” (Roche Palo Alto LLC, priority 2004, dated 2012):

With `COCC(=O)N(C)S(=O)(=O)c1ccc(NC(=O)Cc2ccc(Cl)c(Oc3cc(Cl)cc(C#N)c3)c2F)c(Cl)c1` [Compound I-171, 2-[4-Chloro-3-(3-chloro-5-cyano-phenoxy)-2-fluoro-phenyl]-N-{2-chloro-4-[(2-methoxy-acetyl)-methyl-sulfamoyl]-phenyl}-acetamide] as the compound, how does the melting point read?
The melting point was 183.2 to 185.5 °C.

For `COCCC(=O)N(C)S(=O)(=O)c1ccc(NC(=O)Cc2ccc(Cl)c(Oc3cc(Cl)cc(C#N)c3)c2F)c(Cl)c1` [Compound I-172, 2-[4-Chloro-3-(3-chloro-5-cyano-phenoxy)-2-fluoro-phenyl]-N-{2-chloro-4-[(3-methoxy-propionyl)-methyl-sulfamoyl]-phenyl}-acetamide], which melting point is on record?
Its melting point is 199.3 to 203 °C.

With `CCOC(=O)C(=O)Nc1ccc(NC(=O)Cc2ccc(C)c(Oc3cc(Cl)cc(C#N)c3)c2)c(C)c1` [Compound I-178, N-(4-{2-[3-(3-Chloro-5-cyano-phenoxy)-4-methyl-phenyl]-acetylamino}-3-methyl-phenyl)-oxalamic acid ethyl ester] as the compound, how does the melting point read?
Its melting point is 182.5 to 183.9 °C.

For `CCc1ccc(CC(=O)Nc2ccc(S(N)(=O)=O)cc2Cl)c(F)c1Oc1cc(C#N)cc(C(F)F)c1` [Compound I-179, N-(2-Chloro-4-sulfamoyl-phenyl)-2-[3-(3-cyano-5-difluoromethyl-phenoxy)-4-ethyl-2-fluoro-phenyl]-acetamide], which melting point is on record?
The melting point was 239.6 to 240.7 °C.

Which melting point does the source give for `CCc1ccc(CC(=O)Nc2ccc(S(N)(=O)=O)cc2C)c(F)c1Oc1cc(C#N)cc(C(F)F)c1` [Compound I-180, 2-[3-(3-Cyano-5-difluoromethyl-phenoxy)-4-ethyl-2-fluoro-phenyl]-N-(2-methyl-4-sulfamoyl-phenyl)-acetamide] here?
The melting point was 237.6 to 238.4 °C.

For `Cc1cc(CC(=O)Nc2ccc(S(N)(=O)=O)cc2)cc(Oc2cc(Cl)cc(C#N)c2)c1C` [Compound I-182, 2-[3-(3-Chloro-5-cyano-phenoxy)-4,5-dimethyl-phenyl]-N-(4-sulfamoyl-phenyl)-acetamide], which melting point is on record?
The melting point was 229.7 to 231.3 °C.

For `Cc1cc(S(N)(=O)=O)ccc1NC(=O)Cc1cc(C)c(C)c(Oc2cc(Cl)cc(C#N)c2)c1` [Compound I-183, 2-[3-(3-Chloro-5-cyano-phenoxy)-4,5-dimethyl-phenyl]-N-(2-methyl-4-sulfamoyl-phenyl)-acetamide], which melting point is on record?
Its melting point is 230.8 to 233.4 °C.

With `Cc1cc(CC(=O)Nc2ccc(S(N)(=O)=O)cc2Cl)cc(Oc2cc(Cl)cc(C#N)c2)c1C` [Compound I-184, 2-[3-(3-Chloro-5-cyano-phenoxy)-4,5-dimethyl-phenyl]-N-(2-chloro-4-sulfamoyl-phenyl)-acetamide] as the compound, how does the melting point read?
Its melting point is 224.3 to 225.7 °C.

For `Cc1cc(S(N)(=O)=O)ccc1NC(=O)Cc1ccc(Cl)c(Oc2cc(Br)cc(C#N)c2)c1F` [Compound I-185, 2-[3-(3-Bromo-5-cyano-phenoxy)-4-chloro-2-fluoro-phenyl]-N-(2-methyl-4-sulfamoyl-phenyl)-acetamide], which melting point is on record?
The melting point was 246 to 250.6 °C.

For `Cc1cc(S(N)(=O)=O)ccc1NC(=O)Cc1ccc(Cl)c(Oc2cc(C#N)cc(C#CCO)c2)c1F` [Compound I-186, 2-{4-Chloro-3-[3-cyano-5-(3-hydroxy-prop-1-ynyl)-phenoxy]-2-fluoro-phenyl}-N-(2-methyl-4-sulfamoyl-phenyl)-acetamide], which melting point is on record?
The melting point was 170.1 to 173.2 °C.

For `Cc1cc(S(N)(=O)=O)ccc1NC(=O)Cc1ccc(Cl)c(Oc2cc(C#N)cc(C#CCN(C)C)c2)c1F` [Compound I-187, 2-{4-Chloro-3-[3-cyano-5-(3-dimethylamino-prop-1-ynyl)-phenoxy]-2-fluoro-phenyl}-N-(2-methyl-4-sulfamoyl-phenyl)-acetamide], which melting point is on record?
The melting point was 156.2 to 158.2 °C.

With `N#Cc1cc(Cl)cc(Oc2c(Cl)ccc(CC(=O)Nc3ccc(S(=O)(=O)NC(=O)CCC(=O)O)cc3Cl)c2F)c1` [Compound I-188, 4-(3-Chloro-4-{2-[4-chloro-3-(3-chloro-5-cyano-phenoxy)-2-fluoro-phenyl]-acetylamino}-benzenesulfonylamino)-4-oxo-butyric acid] as the compound, how does the melting point read?
The melting point was 143.4 to 144 °C.

Which melting point does the source give for `COc1ccc(CC(=O)Nc2ccc(S(N)(=O)=O)cc2Cl)c(F)c1Oc1cc(Cl)cc(C#N)c1` [Compound I-190, 2-[3-(3-Chloro-5-cyano-phenoxy)-2-fluoro-4-methoxy-phenyl]-N-(2-chloro-4-sulfamoyl-phenyl)-acetamide] here?
The melting point was 212 to 212.8 °C.

For `COc1ccc(CC(=O)Nc2ccc(S(N)(=O)=O)cc2C)c(F)c1Oc1cc(Cl)cc(C#N)c1` [Compound I-191, 2-[3-(3-Chloro-5-cyano-phenoxy)-2-fluoro-4-methoxy-phenyl]-N-(2-methyl-4-sulfamoyl-phenyl)-acetamide], which melting point is on record?
Its melting point is 239.9 to 240.8 °C.

With `O=C(Cc1ccc(Cl)c(Oc2cccc(Cl)c2)c1)Nc1ccccc1` [Compound I-192, 2-[4-Chloro-3-(3-chloro-phenoxy)-phenyl]-N-phenyl-acetamide] as the compound, how does the melting point read?
Its melting point is 126.8 to 127.7 °C.

With `CCc1ccc(CC(=O)Nc2ccccc2)cc1Oc1cc(C#N)cc(C#N)c1Cl` [Compound I-208, 2-[3-(2-Chloro-3,5-dicyano-phenoxy)-4-ethyl-phenyl]-N-phenyl-acetamide] as the compound, how does the melting point read?
Its melting point is 189.3 to 192.3 °C.

For `NS(=O)(=O)c1ccc(NC(=O)Cc2ccc(Cl)c(Cc3cc(Cl)ccc3Cl)c2)c(Cl)c1` [Compound I-209, 2-[4-Chloro-3-(2,5-dichloro-benzyl)-phenyl]-N-(2-chloro-4-sulfamoyl-phenyl)-acetamide], which melting point is on record?
Its melting point is 219.3 to 221.5 °C.

For `COc1ccc(CC(=O)Nc2ccccc2)cc1Oc1cc(Cl)cc(C#N)c1` [Compound I-210, 2-[3-(3-Chloro-5-cyano-phenoxy)-4-methoxy-phenyl]-N-phenyl-acetamide], which melting point is on record?
Its melting point is 171.3 to 171.6 °C.

Which melting point does the source give for `N#Cc1cc(C#N)cc(Oc2cc(CC(=O)Nc3ccccc3)ccc2Cl)c1` [Compound I-211, 2-[4-Chloro-3-(3,5-dicyano-phenoxy)-phenyl]-N-phenyl-acetamide] here?
The melting point was 199 to 201.9 °C.

For `Cc1ccncc1NC(=O)Cc1ccc(C)c(Oc2cc(Cl)cc(C#N)c2)c1` [Compound I-224, 2-[3-(3-Chloro-5-cyano-phenoxy)-4-methyl-phenyl]-N-(4-methyl-pyridin-3-yl)-acetamide], which melting point is on record?
Its melting point is 158.6 to 159.1 °C.

With `Cc1ccc(CC(=O)Nc2ncccc2C)cc1Oc1cc(Cl)cc(C#N)c1` [Compound I-225, 2-[3-(3-Chloro-5-cyano-phenoxy)-4-methyl-phenyl]-N-(3-methyl-pyridin-2-yl)-acetamide] as the compound, how does the melting point read?
The melting point was 137.9 to 138.8 °C.

Which melting point does the source give for `Cc1cc(NC(=O)Cc2ccc(C)c(Oc3cc(Cl)cc(C#N)c3)c2)n(C)n1` [Compound I-226, 2-[3-(3-Chloro-5-cyano-phenoxy)-4-methyl-phenyl]-N-(2,5-dimethyl-2H-pyrazol-3-yl)-acetamide] here?
The melting point was 155.6 to 159 °C.

For `Cc1ccc(CC(=O)Nc2ccnn2C)cc1Oc1cc(Cl)cc(C#N)c1` [Compound I-227, 2-[3-(3-Chloro-5-cyano-phenoxy)-4-methyl-phenyl]-N-(2-methyl-2H-pyrazol-3-yl)-acetamide], which melting point is on record?
The melting point was 129.5 to 132.8 °C.

With `CC(=O)Nc1cc(C)c(NC(=O)Cc2ccc(C)c(Oc3cc(Cl)cc(C#N)c3)c2)cn1` [Compound I-228, N-(6-Acetylamino-4-methyl-pyridin-3-yl)-2-[3-(3-chloro-5-cyano-phenoxy)-4-methyl-phenyl]-acetamide] as the compound, how does the melting point read?
Its melting point is 222.5 to 224 °C.

For `COc1ccc(NC(=O)Cc2ccc(C)c(Oc3cc(Cl)cc(C#N)c3)c2)c(C)n1` [Compound I-229, 2-[3-(3-Chloro-5-cyano-phenoxy)-4-methyl-phenyl]-N-(6-methoxy-2-methyl-pyridin-3-yl)-acetamide], which melting point is on record?
Its melting point is 168.3 to 170.4 °C.

For `CSc1nc(NC(=O)Cc2ccc(C)c(Oc3cc(Cl)cc(C#N)c3)c2)n(C)n1` [Compound I-230, 2-[3-(3-Chloro-5-cyano-phenoxy)-4-methyl-phenyl]-N-(2-methyl-5-methylsulfanyl-2H-[1,2,4]triazol-3-yl)-acetamide], which melting point is on record?
Its melting point is 173 to 174 °C.

For `Cc1cc(CC(=O)Nc2ccccc2Cl)cc(C(=O)c2cc(Cl)cc(Cl)c2)c1` [Compound I-231, N-(2-Chloro-phenyl)-2-[3-(3,5-dichloro-benzoyl)-5-methyl-phenyl]-acetamide], which melting point is on record?
Its melting point is 142 to 146.2 °C.

Which melting point does the source give for `Cc1cc(OCC(=O)O)ccc1NC(=O)Cc1ccc(C)c(Oc2cc(Cl)cc(C#N)c2)c1` [Compound I-234, (4-{2-[3-(3-Chloro-5-cyano-phenoxy)-4-methyl-phenyl]-acetylamino}-3-methyl-phenoxy)-acetic acid] here?
Its melting point is 174.8 to 176.4 °C.

For `COC(=O)Cc1ccc(NC(=O)Cc2ccc(C)c(Oc3cc(Cl)cc(C#N)c3)c2)c(Cl)c1` [Compound I-235, (3-Chloro-4-{2-[3-(3-chloro-5-cyano-phenoxy)-4-methyl-phenyl]-acetylamino}-phenyl)-acetic acid methyl ester], which melting point is on record?
The melting point was 116.9 to 118 °C.

For `Cc1ccc(CC(=O)Nc2ccc(CC(=O)O)cc2Cl)cc1Oc1cc(Cl)cc(C#N)c1` [Compound I-236, (3-Chloro-4-{2-[3-(3-chloro-5-cyano-phenoxy)-4-methyl-phenyl]-acetylamino}-phenyl)-acetic acid], which melting point is on record?
Its melting point is 159.6 to 160 °C.

For `Cc1cc(NS(C)(=O)=O)ccc1NC(=O)Cc1ccc(C)c(Oc2cc(Cl)cc(C#N)c2)c1` [Compound I-237, 2-[3-(3-Chloro-5-cyano-phenoxy)-4-methyl-phenyl]-N-(4-methanesulfonylamino-2-methyl-phenyl)-acetamide], which melting point is on record?
Its melting point is 180 to 181.4 °C.

For `Cc1cc(N(C)S(C)(=O)=O)ccc1NC(=O)Cc1ccc(C)c(Oc2cc(Cl)cc(C#N)c2)c1` [Compound I-238, 2-[3-(3-Chloro-5-cyano-phenoxy)-4-methyl-phenyl]-N-[4-(methanesulfonyl-methyl-amino)-2-methyl-phenyl]-acetamide], which melting point is on record?
The melting point was 184 to 184.8 °C.

For `O=C(Cc1cc2c(c(C(=O)c3ccc(Cl)cc3)c1)OCC2)Nc1ccccc1Cl` [Compound I-240, 2-[7-(4-Chloro-benzoyl)-2,3-dihydro-benzofuran-5-yl]-N-(2-chloro-phenyl)-acetamide], which melting point is on record?
The melting point was 141.1 to 144.9 °C.

For `NS(=O)(=O)c1ccc(NC(=O)Cc2cc3c(c(C(=O)c4ccc(Cl)cc4)c2)OCC3)cc1` [Compound I-241, 2-[7-(4-Chloro-benzoyl)-2,3-dihydro-benzofuran-5-yl]-N-(4-sulfamoyl-phenyl)-acetamide], which melting point is on record?
Its melting point is 259 to 261 °C.
